Test system: hTREX1 HCT116
Assay: hTREX1 HCT116 Cell Assay (Lucia luciferase reporter, Type I interferon induction)
Type: cell-based
Details: Homo sapiens, HCT-116, HCT116 dual cells, 4h compound, then pBR322/BstNI DNA transfection, 48h
Text: HCT116 dual cells (Invivogen, San Diego, CA, USA) are derived from the human HCT116 colorectal carcinoma cell line. Cells have been selected for the stable integration of SEAP and Luciferase reporter genes, which expression is under the control of 5 tandem response elements for NF-KB/AP1 and STAT1/STAT2, respectively. The cell line was used to monitor Type I interferon induction and subsequent signaling by measuring the activity of the Lucia luciferase secreted in the culture medium.
HCT116 cells were plated in 96-well plate(s) at 40,000 cells/well in 100 uL DMEM supplemented with 10% FBS and 25 mM Hepes (pH 7.2-7.5). After overnight settling, cells were treated with TREX1i for 4h (maximum DMSO fraction was 0.1%) before 1 ug/mL pBR322/BstNI restriction digest (New England Biolabs, Ipswich, MA, USA) was transfected with Lipofectamine LTX (ThermoFisher, Grand Island, NY, USA), according to product manual recommendations. Briefly, Lipofectamine LTX (0.35 uL/well) was diluted in OptiMEM (5 uL/well). pBR322/BstNI (100 ng/well) was diluted in OptiMEM (5 uL/well) before Plus reagent (0.1 uL/100 ng DNA) was added. After 5 min incubation at room temperature, the DNA mixture was mixed dropwise with the diluted Lipofectamine LTX. After an additional 10 min incubation, the transfection mix (10 uL/well) was added to the cells. Cells were maintained at 37 C for 48h before monitoring the Lucia Luciferase activity from the cell culture medium.

Row | SMILES | IC50
1 | CC(c1nc(C(=O)Nc2cnoc2)c(O)c(=O)n1C)C(c1ccccc1)c1ccccc1 (single isomer, unassigned) [Example 1 Isomer 1, 2-(1,1-diphenylpropan-2-yl)-5-hydroxy-N-(isoxazol-4-yl)-1-methyl-6-oxo-1,6-dihydro pyrimidine-4-carboxamide] | > 0.1 µM
2 | CC(c1nc(C(=O)Nc2cnoc2)c(O)c(=O)n1C)C(c1ccccc1C#N)c1ccccc1C#N (single isomer, unassigned) [Example 4 Isomer 2] | < 0.01 µM
3 | C[C@H](c1nc(C(=O)Nc2cnoc2)c(O)c(=O)n1C)[C@H](c1ccccc1)c1ccccc1C(F)(F)F (single isomer, unassigned) [Example 14 Isomer 2, 5-Hydroxy-N-(isoxazol-4-yl)-1-methyl-6-oxo-2-(1-phenyl-1-(2-(trifluoromethyl)phenyl)propan-2-yl)-1,6-dihydropyrimidine-4-carboxamide] | > 0.1 µM
4 | C[C@H](c1nc(C(=O)Nc2cnoc2)c(O)c(=O)n1C)C(c1ccccc1Cl)c1ccccc1Cl (single isomer, unassigned) [Example 15 Isomer 1, 2-(1,1-bis(2-chlorophenyl)propan-2-yl)-5-hydroxy-N-(isooxazol-4-yl)-1-methyl-6-oxo-1,6-dihydropyrimidine-4-carboxamide] | 0.01 to 0.1 µM
5 | CC(c1nc(C(=O)Nc2cnoc2)c(O)c(=O)n1C)C(c1ccccc1)c1cc(C(=O)N(C)C)ccc1C#N (single isomer, unassigned) [Example 17 Isomer 3] | 0.01 to 0.1 µM
6 | Cn1c([C@H](C(c2ccccc2)c2ccccc2)C(F)(F)F)nc(C(=O)Nc2cnoc2)c(O)c1=O (single isomer, unassigned) [Example 20 Isomer 1, 5-Hydroxy-N-(isoxazol-4-yl)-1-methyl-6-oxo-2-(1,1,1-trifluoro-3,3-diphenylpropan-2-yl)-1,6-dihydropyrimidine-4-carboxamide] | > 0.1 µM
7 | Cn1c([C@@H](C(c2ccccc2C#N)c2ccccc2C#N)C(F)(F)F)nc(C(=O)Nc2cnoc2)c(O)c1=O (single isomer, unassigned) [Example 21 Isomer 1, 2-(3,3-bis(2-cyanophenyl)-1,1,1-trifluoropropan-2-yl)-5-hydroxy-N-(isoxazol-4-yl)-1-methyl-6-oxo-1,6-dihydropyrimidine-4-carboxamide] | < 0.01 µM
